Data reported in publication PMC9785542, “Discovery of 1-Benzhydryl-Piperazine-Based HDAC Inhibitors with Anti-Breast Cancer Activity: Synthesis, Molecular Modeling, In Vitro and In Vivo Biological Evaluation” (Pharmaceutics, 2022).

Columns and labels:
[1] = Acute and developmental toxicity in zebrafish embryos; type: in vivo, Danio rerio; details: wild type (AB), zebrafish (Danio rerio), in vivo, other: exposure of embryos in E3 medium, evaluated at 120 hpf; for LC50: embryos treated at 6 hpf; for EC50: teratogenicity, cardiotoxicity, hepatotoxicity, treated at 6 hpf
Protocol: (§1) Embryos of wild type (AB) and transgenic Tg(fli1:EGFP) and Tg(-2.8fabp10a:EGFP) zebrafish (Danio rerio) lines were kindly provided by Dr. Ana Cvejić (Wellcome Trust Sanger Institute, Cambridge, UK) and raised to adult stage in a temperature- and light-controlled zebrafish facility at 28 °C and standard 14–10 h light–dark photoperiod. Adult fish were regularly fed with commercial dry food (SDS300 granular food; Special Diet Services, Essex, UK; and TetraMinTM flakes, Tetra, Melle, Germany) twice per day and Artemia nauplii daily. All experiments involving zebrafish were performed in compliance with the European directive 2010/63/EU and the ethical guidelines of the Guide for Care and Use of Laboratory Animals of the Institute of Molecular Genetics and Genetic Engineering, University of Belgrade.
(§2) Toxicity evaluation of the tested compounds in the zebrafish model was carried out following the general rules of the OECD Guidelines for the Testing of Chemicals (OECD, 2013, Test No. 236), and procedures described in the literature. Briefly, wild type (AB) zebrafish produced by pair-wise mating were collected, washed of debris, and distributed into 24-well plates containing 10 embryos/well and 1 mL of E3 medium (5 mM NaCl, 0.17 mM KCl, 0.33 mM CaCl2, and 0.33 mM MgSO4·7H2O in distilled water), and raised at 28 °C.
(§3) To assess acute (lethality), inner organ, and developmental (teratogenicity) toxicity, the embryos at the 6 h post-fertilization (hpf) stage were treated with six different concentrations of each tested compound (100, 50, 25, 12.5, 6.25, and 3.13 µM). Stock solutions of test substances were made in DMSO. Embryo water and DMSO (0.25%) were used as negative and […] controls, respectively. The experiment was performed three times using 20 embryos per concentration. Treated embryos were inspected for 22 toxicological parameters (Table S2) every day by 120 hpf upon a stereomicroscope (Carl Zeiss™ Stemi 508 doc Stereomicroscope, Jena, Germany). Dead embryos were discarded every 24 h. At 120 hpf, embryos were anesthetized by addition of 0.1% (w/v) tricaine solution (Sigma-Aldrich, St. Louis, MO, USA), photographed, and killed by freezing at −20 °C for ≥24 h.

[2] = test system: zebrafish (Danio rerio) embryos; test: as above; type: in vivo; details: 50 µM
Protocol: as §1, §2, §3

[3] = test system: MDA-MB-231 xenografts in Tg(fli1:EGFP) zebrafish embryos; test: Zebrafish MDA-MB-231 xenograft model; type: in vivo; details: for reduction of tumor mass vs untreated control: 3 days post injection
Protocol: The human breast carcinoma MDA-MB 231 cell line was cultured in DMEM:Ham’s 12 (1:1) medium (Sigma-Aldrich, St. Louis, MO, USA) supplemented with 10% FBS (Sigma-Aldrich, St. Louis, MO, USA), 100 µg/mL streptomycin, and 100 U/mL penicillin (Sigma-Aldrich, St. Louis, MO, USA), and grown as a monolayer in humidified atmosphere of 95% air and 5% CO2 at 37 °C. Prior to microinjection, the cells were washed once with PBS and trypsinized (0.25% trypsin/0.53 mM EDTA) (Sigma-Aldrich, St. Louis, MO, USA) to obtain a single-cell suspension. After centrifugation at 1200 rpm for 5 min, the cells were resuspended in serum-free DMEM medium and labeled with 2 µM Cell Tracker TM Red CMTPX (Thermo Fisher Scientific) according to the manufacturer’s instructions.
The zebrafish xenografts with human MDA-MB-231 cells were established according to the previously described procedure with slight modification. A day before the microinjections, Tg(fli1:EGFP) embryos kept at 28 °C were manually dechorionated. At the 48 hpf stage, 5 nL of MDA-MB 231 cell suspension containing 150 labeled cells was microinjected into the yolk of anesthetized embryos by a pneumatic picopump (PV820, World Precision Instruments, Sarasota, FL, USA). The exact number of cells was confirmed by dispensing the injected volume onto a microscope slide and by visual counting. After injection, embryos were incubated, to recover, for at least for 60 min at 28 °C, dead embryos were removed, while alive embryos were transferred into 24-well plates containing 1 mL of E3 water and 10 embryos per well. The injected xenografts were treated with the three doses of 8b (3.13, 6.25, and 12.5 µM), and maintained at 31–32 °C by 120 hpf. DMSO (0.25%) was used as a negative control. The survival and development of the xenografted embryos was recorded every day until the end of experiment (3 days post injection = 3 dpi), at which point, anesthetized xenografts were processed by fluorescent microscopy. The tumor size, number of xenografts with disseminated tumor cells in the caudal region, and number of disseminated cells per embryo were determined. The tumor size was determined by the fluorescent images using ImageJ. The experiment was repeated two times using 10 embryos per concentration.

MDA-MB-231 cells = test: Bicameral (transwell) migration assay; type: cell-based, human; details: 24 h; 5 μM 8b, 10 μM 9b
Protocol: To determine MDA-MB-231 cell migration and invasion cell capacities, Corning® Costar® Transwell® cell culture inserts with 8.0 μm pore polycarbonate filters (Sigma Aldrich, CLS3464) and Corning™ BioCoat™ Matrigel™ Invasion Chamber with Corning Matrigel Matrix™ cell culture inserts (Thermo fisher scientific, Waltham, MA, USA) respectively were used. Briefly, 6 × 10^4 cells in 200 μL were seeded in the upper chamber and the bottom chamber was filled with 800 μL of medium. After 24 h under indicated treatments, the remaining cells in the upper chamber were gently removed with a cotton swab, moistened with medium, and the inserts were carefully washed twice with 37 °C warmed PBS. Then, attached cells at the bottom side of the membrane were fixed by immersing in ice cold methanol for 2 min and stained with 0.1% crystal violet for 15 min at room temperature. Stained cells were photographed and quantified using NIH ImageJ software.

MCF-7 cells = test: Wound healing assay; type: cell-based; details: Homo sapiens, MCF7, 24 h, read-out: inhibition of wound closure compared to control
Protocol: To determine MCF-7 cell migration properties, 1 × 10^5 cells were seeded in 24-well plates and cultured until confluent. Then, cell monolayers were scratched using a sterile 200 μL pipette tip, and cell cultures were allowed to grow for 24 h under the indicated treatments. At the end of incubation period, culture medium was removed and wells were washed twice with PBS, then, cells were fixed with ice-cold methanol and stained with 0.1% crystal violet. In addition, cell monolayers were fixed and stained just after scratching to represent zero time migration. Finally, cell migration into the scratch area was documented by inverted light microscopy and quantified using NIH ImageJ software.

Row | Structure (SMILES) | LC50 [1] [µM] | EC50 [1] [µM] | embryos with teratogenicity, cardio- or hepatotoxicity [2] | number of metastasis per embryo, fold lower than untreated ([3]; 3.13 µM, 3-day treatment) | reduction of number of embryos exhibiting metastases ([3]; 3.13 µM, 3-day treatment) [%] | reduction of tumor mass vs untreated control ([3]; 3.13 µM) [%] | dissemination of MDA-MB-231 cells ([3]; 12.5 µM) | reduction of tumor mass vs untreated control ([3]; 12.5 µM) | ED50 (effective drug concentration reducing tumor mass by 50% in relation to the control) ([3]; 3-day treatment) [µM] | toxic side effects in xenografts ([3]; 3.13, 6.25 and 12.5 µM, 3-day treatment) | anti-migratory property (% compared to control) (MDA-MB-231 cells) | inhibition at 10 µM (MCF-7 cells) [%]
1 | O=C(CCCCCCCN1CCN(C(c2ccccc2)c2ccccc2)CC1)NO [Compound 8b, 8-(4-(diphenylmethyl)-piperazin-1-yl)-N-hydroxyoctanamide] | > 100 | 79.5 | none | up to 9.6 fold | 50 | 56.1 ± 5.2 | completely inhibited | almost complete reduction | 2.67 | no toxic side effects were observed | – | –
2 | O=C(NO)c1ccc(CN2CCN(C(c3ccccc3)c3ccccc3)CC2)cc1 [Compound 9b, 4-(4-(diphenylmethyl)-piperazin-1-ylmethyl)-N-hydroxy-benzamide] | > 100 | 53.8 | 32% | – | – | – | – | – | – | – | did not reduce | 63.9
